# Where a name gives a salt, the structure may show the parent alone.
# Columns and labels:
# [1] = Volatility of perfuming compounds (Tables 4 to 10), with top/middle/bottom note type; format: physicochemical
# How it was run: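 Note type follows from air volatility (μg/l): bottom 49–0.1, middle 99–50, top 70,000–100. Compounds are listed within watery, green, fruity, citrus, sweet, gourmand and woody families.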
# [2] = Log P (n-octanol/water) of perfuming compounds (Tables 4 to 10)
# [3] = Odor threshold and odor value of perfuming compounds (Tables 4 to 10)
# [4] = Table 6, perfuming compounds having a fruity note
# [5] = Table 6, perfuming compounds having a fruity note, note type by volatility
# [6] = Table 9, perfuming compounds having a gourmand note, note type by volatility
# [7] = note type (Top/Middle/Bottom) by volatility, perfuming compounds having a green note
# [8] = perfuming compounds having a green note
# [9] = n-octanol/water, perfuming compounds having a green note
# [10] = Table 8, perfuming compounds having a sweet note
# [11] = Table 8, perfuming compounds having a sweet note, note type by volatility
Compound,"Volatility [1, 4] [μg/l air]","Type [1, 5]","Log P (n-octanol/water) [2, 4]","Type [1, 7]","Volatility (μg/l air) [1, 8] [μg/l air]","Log P (n-octanol/water) [2, 9]","Odor Threshold (μg/l air) [3, 8] [μg/l air]",further results
CCCCC1CCC(=O)O1 (racemic) [(+−)-4-OCTANOLIDE],108.41,"TOP (perfuming compounds having a volatility ranging from 70,000 to 100 μg/l in air are referred to as “top notes”)",1.80,–,–,–,–,"Volatility ([1]; Table 9, gourmand note): 108.41 μg/l air; Type [1, 6]: Top; Log P (n-octanol/water) ([2]; Table 9, gourmand note): 1.80; Odor Threshold [3, 4]: 2.32E−05 μg/l air; Odor Value [3, 4]: 4.67E+06; Odor Threshold ([3]; Table 9, gourmand note): 2.32E−05 μg/l air"
CC/C=C\CCOC(=O)C(C)CC (racemic) [(+−)-(Z)-3-HEXENYL 2-METHYLBUTANOATE],833.05,"TOP (perfuming compounds having a volatility ranging from 70,000 to 100 μg/l in air are referred to as “top notes”)",3.84,Top,833.05,3.84,1.96E−02,–
CCCC(C)C(=O)OCC (racemic) [(+−)-ETHYL 2-METHYLPENTANOATE],35090.18,"TOP (perfuming compounds having a volatility ranging from 70,000 to 100 μg/l in air are referred to as “top notes”)",3.05,Top,35090.18,3.05,3.84E−05,–
"C=C(C)C1CC=C(C)CC1 (single isomer, unassigned; (+)) [(+)-LIMONENE]",10216.93,"TOP (perfuming compounds having a volatility ranging from 70,000 to 100 μg/l in air are referred to as “top notes”)",5.40,–,–,–,–,"Volatility (μg/l air) ([1]; Table 7, citrus note): 10216.93 μg/l air; Type ([1]; Table 7, citrus note, top, middle or bottom note): Top; Log P (n-octanol/water) ([2]; Table 7, citrus note): 5.40; Odor Threshold (μg/l air) ([3]; Table 7, citrus note): 1.29E−01 μg/l air; Odor Value ([3]; Table 7, citrus note, equals volatility divided by odor threshold): 7.92E+04"
"COC(OC)C(C)c1ccccc1 (centres unmarked) [1,1-DIMETHOXY-2-PHENYLPROPANE]",–,–,–,Top,376.94,2.50,1.42E−02,–
CCCCCCCCCCO [1-DECANOL],–,–,–,Bottom,31.90,4.10,1.13E−02,–
CCCOC(C)OCCc1ccccc1 (centres unmarked) [1-PHENYL-2-(1-PROPOXYETHOXY)ETHANE],–,–,–,Middle,59.63,3.58,1.52E−03,–
c1ccc(CCCc2ccccn2)cc1 [2-(3-PHENYLPROPYL)PYRIDINE],–,–,–,Bottom,3.83,2.87,1.29E−06,–
SCc1ccco1 [2-FURANMETHANETHIOL],–,–,–,–,–,–,–,"Volatility [1, 10]: 29677.31 μg/l air; Type [1, 11]: Top; Log P (n-octanol/water) [2, 10]: 1.70; Odor Threshold [3, 10]: 1.43E−09 μg/l air; Odor Value [3, 10]: 2.08E+13"
CCCC(C)COC(=O)C(C)CCC (centres unmarked) [2-METHYLPENTYL 2-METHYLPENTANOATE],450.33,"TOP (perfuming compounds having a volatility ranging from 70,000 to 100 μg/l in air are referred to as “top notes”)",5.13,Top,450.33,5.13,2.41E−01,–
CCCC=C1OC(=O)c2ccccc21 [3-BUTYLIDENE-1-BENZO[C]FURANONE],–,–,–,–,–,–,–,"Volatility [1, 10]: 14.37 μg/l air; Type [1, 11]: Bottom; Volatility ([1]; Table 9, gourmand note): 14.37 μg/l air; Type [1, 6]: Bottom; Log P (n-octanol/water) [2, 10]: 3.12; Log P (n-octanol/water) ([2]; Table 9, gourmand note): 3.12; Odor Threshold [3, 10]: 8.65E−04 μg/l air; Odor Value [3, 10]: 1.66E+04; Odor Threshold ([3]; Table 9, gourmand note): 8.65E−04 μg/l air"
CC(=O)CCc1ccc(O)cc1 [4-(4-HYDROXY-1-PHENYL)-2-BUTANONE],0.36,Bottom,0.93,–,–,–,–,"Odor Threshold [3, 4]: 2.05E−07 μg/l air; Odor Value [3, 4]: 1.75E+06"
COc1ccc(CCC(C)=O)cc1 [4-(4-METHOXYPHENYL)-2-BUTANONE],5.58,Bottom,2.06,–,–,–,–,"Volatility [1, 10]: 5.58 μg/l air; Type [1, 11]: Bottom; Volatility ([1]; Table 9, gourmand note): 5.58 μg/l air; Type [1, 6]: Bottom; Log P (n-octanol/water) [2, 10]: 2.06; Log P (n-octanol/water) ([2]; Table 9, gourmand note): 2.06; Odor Threshold [3, 4]: 5.88E−06 μg/l air; Odor Value [3, 4]: 9.49E+05; Odor Threshold [3, 10]: 5.88E−06 μg/l air; Odor Value [3, 10]: 9.49E+05; Odor Threshold ([3]; Table 9, gourmand note): 5.88E−06 μg/l air"
COc1ccc(C=O)cc1 [4-METHOXYBENZALDEHYDE],–,–,–,Middle,98.47,1.56,1.81E−05,–
CC(=O)CCc1ccccc1 [4-PHENYL-2-BUTANONE],176.55,"TOP (perfuming compounds having a volatility ranging from 70,000 to 100 μg/l in air are referred to as “top notes”)",1.79,Top,176.55,1.79,2.22E−04,–
CC(=O)CCC=C(C)C [6-METHYL-5-HEPTEN-2-ONE],5775.94,"TOP (perfuming compounds having a volatility ranging from 70,000 to 100 μg/l in air are referred to as “top notes”)",2.05,Top,5775.94,2.05,1.06E−01,–
"COC(Cc1ccccc1)OC [(2,2-DIMETHOXYETHYL)BENZENE]",–,–,–,Top,456.97,2.10,4.55E−02,–
COCCc1ccccc1 [(2-METHOXYETHYL)BENZENE],–,–,–,Top,1239.07,2.33,6.32E−04,–
N#C/C=C/c1ccccc1 [(E)-3-PHENYL-2-PROPENENITRILE],–,–,–,–,–,–,–,"Type ([1]; Table 10, perfuming compounds having a woody note, note type by volatility): Middle; Volatility ([1]; Table 10, woody note): 66.00 μg/l air; Log P (n-octanol/water) ([2]; Table 10, woody note): 1.98; Odor Threshold ([3]; Table 10, woody note): 8.97E−05 μg/l air"
C=CCOC(=O)COc1ccccc1 [ALLYL PHENOXYACETATE],9.94,Bottom,2.04,Bottom,9.94,2.04,1.22E−03,"Odor Threshold [3, 4]: 1.22E−03 μg/l air; Odor Value [3, 4]: 8.13E+03"
CC(C)CC(=O)OCc1ccccc1 [BENZYL 3-METHYLBUTANOATE],63.56,Middle,3.45,–,–,–,–,"Volatility [1, 10]: 63.56 μg/l air; Type [1, 11]: Middle; Log P (n-octanol/water) [2, 10]: 3.45; Odor Threshold [3, 4]: 7.31E−03 μg/l air; Odor Value [3, 4]: 8.70E+03; Odor Threshold [3, 10]: 7.31E−03 μg/l air; Odor Value [3, 10]: 8.70E+03"
O=COCc1ccccc1 [BENZYL FORMATE],–,–,–,Top,1339.53,1.76,3.23E−01,–

# Source: US20240301319A1, “PERFUMING COMPOSITIONS” (FIRMNICH SA, priority 2017, published 2024)
